The results in this text go back to US20230203043A1, “NOVEL IMIDAZOPYRAZINE DERIVATIVES” (Hoffmann-La Roche Inc., priority 2020, published 2023).

The term IC90 denotes the point of the concentration-response curve where the effect stands at 90%.

Where a name gives a salt, the structure may show the parent alone.

For the first assay, the system named is Acinetobacter baumannii ATCC17961. Briefly: Antimicrobial susceptibility testing: 90% growth inhibitory concentration (IC90) determination in Iso-Sensitest broth, OD600 growth. The settings on record: Acinetobacter baumannii, ATCC17961, 16 h, read-out: A. baumannii ATCC 17961 IC90 (uM), strain ATCC 17961, OD600 growth over 16 h. In kind it is cell-based. A digest of the protocol: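 Growth monitored at 600 nm every 20 min for 16 h at 35±2 °C, inoculum ~5×10^(5) CFU/ml in Iso-Sensitest medium. Compounds in 10-point twofold series, e.g. 50 to 0.097 μM final; 90% inhibitory concentration taken from log-phase growth.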
Regarding `Cc1cc(Nc2nccn3c(-c4cn(CC#N)nc4C(F)(F)F)cnc23)ccc1C(=O)NCC(=O)N1CC[C@H](N)C1` [Example 739, N-[2-[(3S)-3-aminopyrrolidin-1-yl]-2-oxo-ethyl]-4-[[3-[1-(cyanomethyl)-3-(trifluoromethyl)pyrazol-4-yl]imidazo[1,2-a]pyrazin-8-yl]amino]-2-methyl-benzamide formate], the 90% effect concentration (IC90) is 0.527 µM.

`Cc1cc(Nc2nccn3c(-c4cn(CC#N)nc4C(F)(F)F)cnc23)ccc1C(=O)NCC(=O)NCCN` [Example 760, N-[2-(2-aminoethylamino)-2-oxo-ethyl]-4-[[3-[1-(cyanomethyl)-3-(trifluoromethyl)pyrazol-4-yl]imidazo[1,2-a]pyrazin-8-yl]amino]-2-methyl-benzamide formate]: the IC90 was 0.718 µM.

As to `C[C@@H](NC(=O)c1ccc(Nc2nccn3c(-c4c[nH]nc4C(F)(F)F)cnc23)cc1Cl)C(=O)NCCN(C)C` [Example 98, 2-chloro-N-[(2R)-1-[2-(dimethylamino)ethylamino]-1-oxopropan-2-yl]-4-[[3-[3-(trifluoromethyl)-1H-pyrazol-4-yl]imidazo[1,2-a]pyrazin-8-yl]amino]benzamide formate], the IC90 came to 1.94 µM.

Regarding `N[C@H]1C[C@H]1C(=O)N1CCN(C(=O)c2ccc(Nc3nccn4c(-c5c[nH]nc5C(F)(F)F)cnc34)cc2Cl)CC1` [Example 225, [4-[(1R,2S)-2-aminocyclopropanecarbonyl]piperazin-1-yl]-[2-chloro-4-[[3-[3-(trifluoromethyl)-1H-pyrazol-4-yl]imidazo[1,2-a]pyrazin-8-yl]amino]phenyl] methanone formate], the concentration for an effect of 90% (IC90) turned out to be 1.81 µM.

In the case of `O=C(N[C@H]1CCNC1)N1CCN(C(=O)c2ccc(Nc3nccn4c(-c5c[nH]nc5C(F)(F)F)cnc34)cc2Cl)CC1` [Example 389, 4-[2-chloro-4-[[3-[3-(trifluoromethyl)-1H-pyrazol-4-yl]imidazo[1,2-a]pyrazin-8-yl]amino]benzoyl]-N-[(3S)-pyrrolidin-3-yl]piperazine-1-carboxamide formate], the IC90 was 0.136 µM.

Take `CCc1cc(Nc2nccn3c(-c4cn(CC#N)nc4C(F)(F)F)cnc23)ccc1C(=O)NCCOCCN` [Example 29, N-[2-(2-aminoethoxy)ethyl]-4-[[3-[1-(cyanomethyl)-3-(trifluoromethyl)pyrazol-4-yl]imidazo[1,2-a]pyrazin-8-yl]amino]-2-ethylbenzamide formate]: the IC90 turned out to be 0.107 µM.

The assay is the same for the next values; noted with them: Acinetobacter baumannii, ATCC17961, 16 h, strain ATCC 17961, OD600 growth over 16 h, read-out: A. baumannii ATCC 17961 IC90.
As to `CCc1cc(Nc2nccn3c(-c4cn(CC(F)F)nc4C(F)F)cnc23)ccc1C(=O)N1CCN(C(=O)[C@@H]2C[C@@H](O)CN2)CC1` [Example 786, (4-(4-((3-(1-(2,2-difluoroethyl)-3-(difluoromethyl)-1H-pyrazol-4-yl)imidazo[1,2-a]pyrazin-8-yl)amino)-2-ethylbenzoyl)piperazin-1-yl)((2S,4R)-4-hydroxypyrrolidin-2-yl)methanone], the concentration for an effect of 90% (IC90) was found to be 1.43 µM.

For `CNC(=O)c1ccc(Nc2nccn3c(-c4cn(Cc5ccncn5)nc4C(F)(F)F)cnc23)cc1Cl` [Example 281, 2-chloro-N-methyl-4-[[3-[1-(pyrimidin-4-ylmethyl)-3-(trifluoromethyl)pyrazol-4-yl]imidazo[1,2-a]pyrazin-8-yl]amino]benzamide], the IC90 is 0.345 µM.

On to `C#CCn1cc(-c2cnc3c(Nc4ccc(C(=O)N5CCN(C(=O)CN)CC5)c(CC)c4)nccn23)c(C(F)F)n1` [Example 793, 2-amino-1-(4-(4-((3-(3-(difluoromethyl)-1-(prop-2-yn-1-yl)-1H-pyrazol-4-yl)imidazo[1,2-a]pyrazin-8-yl)amino)-2-ethylbenzoyl)piperazin-1-yl)ethan-1-one], for which the IC90 amounted to 1.93 µM.

On to `C#CCNCCCCNC(=O)c1c(C)cc(Nc2nccn3c(-c4c[nH]nc4C(F)(F)F)cnc23)cc1F` [Example 783, 2-fluoro-6-methyl-N-(4-(prop-2-yn-1-ylamino)butyl)-4-((3-(3-(trifluoromethyl)-1H-pyrazol-4-yl)imidazo[1,2-a]pyrazin-8-yl)amino)benzamide], for which the IC90 is 1.21 µM.

Consider `CCc1cc(Nc2nccn3c(-c4cn(CC(=O)O)nc4C(F)(F)F)cnc23)ccc1C(=O)NCCOCCN` [Example 271, 2-[4-[8-[4-[2-(2-aminoethoxy)ethylcarbamoyl]-3-ethylanilino]imidazo [1,2-a]pyrazin-3-yl]-3-(trifluoromethyl)pyrazol-1-yl]acetic acid], for which the IC90 stood at 3.07 µM.

`CCc1cc(Nc2nccn3c(-c4cn(CCF)nc4C(F)(F)F)cnc23)ccc1C(=O)N[C@@H](C)CN` [Example 65, N-[(2S)-1-aminopropan-2-yl]-2-ethyl-4-[[3-[1-(2-fluoroethyl)-3-(trifluoromethyl)pyrazol-4-yl]imidazo[1,2-a]pyrazin-8-yl]amino]benzamide]: the concentration for an effect of 90% (IC90) worked out at 0.339 µM.

`CCc1cc(Nc2nccn3c(-c4cn(CC#N)nc4C(F)(F)F)cnc23)ccc1C(=O)N[C@H](C)CNC(=O)[C@@H]1CCCN1` [Example 654, (S)-N-((R)-2-(4-((3-(1-(cyanomethyl)-3-(trifluoromethyl)-1H-pyrazol-4-yl)imidazo[1,2-a]pyrazin-8-yl)amino)-2-ethylbenzamido)propyl) pyrrolidine-2-carboxamide]: the IC90 is 0.263 µM.

In the case of `CNC(=O)c1ccc(Nc2nccn3c(-c4cn(CC(N)=O)nc4C(F)(F)F)cnc23)cc1Cl` [Example 357, 4-[[3-[1-(2-amino-2-oxoethyl)-3-(trifluoromethyl)pyrazol-4-yl]imidazo[1,2-a]pyrazin-8-yl]amino]-2-chloro-N-methylbenzamide], the IC90 worked out at 1.59 µM.

For the compound `CCc1cc(Nc2nccn3c(-c4cn(Cc5cc[nH]n5)nc4C(F)(F)F)cnc23)ccc1C(=O)NC` [Example 15, 2-ethyl-N-methyl-4-[[3-[1-(1H-pyrazol-3-ylmethyl)-3-(trifluoromethyl)pyrazol-4-yl]imidazo[1,2-a]pyrazin-8-yl]amino]benzamide], the IC90 amounted to 0.251 µM.

Consider `N#CCn1cc(-c2cnc3c(Nc4ccc(C(=O)N5CC(O)C5)c(Cl)c4)nccn23)c(C(F)(F)F)n1` [Example 236, 2-[4-[8-[3-chloro-4-(3-hydroxyazetidine-1-carbonyl)anilino]imidazo[1,2-a]pyrazin-3-yl]-3-(trifluoromethyl)pyrazol-1-yl]acetonitrile], for which the IC90 was found to be 0.193 µM.

Take `CCc1cc(Nc2nccn3c(-c4cn(CC#N)nc4C(F)(F)F)cnc23)ccc1C(=O)NCC(=O)NCC1CCNCC1` [Example 524, 4-[[3-[1-(cyanomethyl)-3-(trifluoromethyl)pyrazol-4-yl]imidazo[1,2-a]pyrazin-8-yl]amino]-2-ethyl-N-[2-oxo-2-(4-piperidylmethylamino)ethyl] benzamide formate]: the IC90 came out at 0.395 µM.

In the case of `CCc1cc(Nc2nccn3c(-c4c[nH]nc4C(F)(F)F)cnc23)ccc1C(=O)NCC1CCN(CC2CNC2)C1` (stereo not drawn) [Example 827, N-((1-(azetidin-3-ylmethyl)pyrrolidin-3-yl)methyl)-2-ethyl-4-((3-(3-(trifluoromethyl)-1H-pyrazol-4-yl)imidazo[1,2-α]pyrazin-8-yl)amino)benzamide bis(2,2,2-trifluoroacetate)], the IC90 is 0.57 µM.

Consider `CCc1cc(Nc2nccn3c(-c4cn(CC(F)F)nc4C(F)(F)F)cnc23)ccc1C(=O)NCC(=O)N1CC[C@@H](N)C1` [Example 687, N-[2-[(3R)-3-aminopyrrolidin-1-yl]-2-oxo-ethyl]-4-[[3-[1-(2,2-difluoroethyl)-3-(trifluoromethyl)pyrazol-4-yl]imidazo[1,2-a]pyrazin-8-yl]amino]-2-ethyl-benzamideformate], for which the 90% effect concentration (IC90) came out at 0.345 µM.

Turning to `Cc1cc(Nc2nccn3c(-c4c[nH]nc4C(F)(F)F)cnc23)ccc1C(=O)N1CCN(C(=O)[C@@H]2CCNC2)CC1` [Example 332, [2-methyl-4-[[3-[3-(trifluoromethyl)-1H-pyrazol-4-yl]imidazo[1,2-a]pyrazin-8-yl]amino]phenyl]-[4-[(3R)-pyrrolidine-3-carbonyl]piperazin-1-yl]methanone], the IC90 came out at 0.509 µM.

Turning to `O=C(c1ccc(Nc2nccn3c(-c4c[nH]nc4C(F)(F)F)cnc23)cc1Cl)N1CC2(C1)CN(C(=O)[C@@H]1CCCN1)C2` [Example 688, (S)-(2-chloro-4-((3-(3-(trifluoromethyl)-1H-pyrazol-4-yl)imidazo[1,2-a]pyrazin-8-yl)amino)phenyl)(6-prolyl-2,6-diazaspiro[3.3]heptan-2-yl)methanone], the IC90 is 0.349 µM.

The assay is the same for the next values; noted with them: strain ATCC 17961, OD600 growth over 16 h, read-out: A. baumannii ATCC 17961 IC90.
For the compound `C#CCNC(=O)c1c(C)cc(Nc2nccn3c(-c4cn(CC#C)nc4C(F)(F)F)cnc23)cc1F` [Example 40, 2-fluoro-6-methyl-N-prop-2-ynyl-4-[[3-[1-prop-2-ynyl-3-(trifluoromethyl)pyrazol-4-yl]imidazo[1,2-a]pyrazin-8-yl]amino] benzamide], the IC90 came to 0.196 µM.

As to “4-[[3-[1-(2-cyanomethyl)-3-(trifluoromethyl)pyrazol-4-yl]imidazo[1,2-a]pyrazin-8-yl]amino]-2-ethyl-N-methylbenzamide [Example 337]”, the IC90 stood at 0.359 µM.

As for `N#CCn1cc(-c2cnc3c(Nc4ccc(C(=O)N5CCN(C(=O)NCCN)CC5)c(Cl)c4)nccn23)c(C(F)(F)F)n1` [Example 258, N-(2-aminoethyl)-4-[2-chloro-4-[[3-[1-(2-cyanomethyl)-3-(trifluoromethyl)pyrazol-4-yl]imidazo[1,2-a]pyrazin-8-yl]amino]benzoyl] piperazine-1-carboxamide formate], the IC90 is 0.398 µM.

`C=CCn1cc(-c2cnc3c(Nc4ccc(C(=O)N[C@H](C)CNC(=O)OC(C)(C)C)c(CC)c4)nccn23)c(C(F)(F)F)n1` [Example 129, tert-butyl N-[(2R)-2-[[2-ethyl-4-[[3-[1-prop-2-enyl-3-(trifluoromethyl)pyrazol-4-yl]imidazo[1,2-a]pyrazin-8-yl]amino]benzoyl]amino]propyl] carbamate]: the concentration for an effect of 90% (IC90) stood at 1.06 µM.
